Source: US7163799B2, “Neuromedin U receptor NMUR2 and nucleotides encoding it” (Merck & Co., Inc., priority 2000, dated 2007)
Values belong to the compound of their own block, whether it stands above or below them. Where no end group is shown, it is not given here.

Columns and labels:
Assay type in all cases: in vivo, rat
rats [1] = assay: Food intake and feeding duration in rats after ICV administration; conditions: for overnight food intake, change expressed as percentage of control group: n=12 per group
Description: Male rats (Charles River Sprague Dawley) weighing 250–350 g were maintained in a temperature and humidity controlled facility with a 12 hour light/dark cycle (4:00 AM lights on). Rats were individually housed in custom designed shoebox cages on wire floors and fed ad libitum with fresh diet provided daily. […] Attached to the food drawers was an infrared feeding monitor that projects a beam across the drawer above the food (MiniMitter, Inc., Sun River, Oreg.). When the animal broke the infrared beam it caused a switch closure. An oscillator then sent off pulses (one pulse/second) and the total number of pulses indicated the length of time that the beam was broken which corresponds to the length of time spent feeding (recorded as feeding duration).
Cannulation and ICV administration were performed essentially as described in Murphy et al 1998 Neuropeptides 32:491–497, which is hereby incorporated by reference. After cannulation, rats were allowed to recover a minimum of seven days before injection with test compounds. All test substances were dissolved in artificial cerebral spinal fluid (aCSF). Rats were injected ICV with 1, 3, or 10 μg of rat NMU-23 (Phoenix Pharmaceuticals). Additional rats were injected ICV with either 0.3 or 0.03 μg of MT-II (Peninsula Laboratories) as a positive control for food intake suppression (melanocortin receptor agonist). […] Another group of ICV-cannulated rats were used in conditioned taste aversion (CTA) and sodium appetite (SA) aversion assays.

rats [2] = assay: Sodium (salt) appetite aversion assay in rats; conditions: sodium-depleted rats
Description: In the salt appetite assay, rats were given 0.5 M NaCl salt water to drink for three days along with food and regular water. After three days, two injections of furosemide (5 mg /0.2 ml, s.c.) were given at one hour apart to sodium-deplete the rats. Rats were then returned to salt-free water and given a sodium-deficient diet. Rats actively seek to defend their internal sodium levels. Consequently, when sodium is depleted, they will avidly drink salt solutions unless ill or nauseous. Twenty-four hours following furosemide administration, rats were given NMU (0, 3, or 10 μg, ICV), or LiCl (0.15 M, 2 ml/kg, i.p.) and given water and 0.5 M NaCl to drink. Fluid consumption was measured 1, 2, and 24 hours post dosing.

rats [3] = assay: Conditioned taste aversion (CTA) assay in rats; conditions: for saccharin intake relative to total intake (taste aversion): 24 hours post-dosing
Description: In the CTA study, rats were conditioned to two hour daily access to water, with access to water from two bottles for two hours each day for three days. On the fourth day, rats were given 0.15% saccharin for the two hour period instead of water and saccharin consumption measured. Rats were injected NMU-23 (0, 3, or 10 μg, ICV). LiCl was used as a positive control (0.15 M; 2 ml/kg, i.p.). On the fifth day, rats were given saccharin alone for the first hour, then water was added for the remaining 23 hours. Fluid consumption was measured at 1, 2, and 24 hours post injection. Aversion was assessed as a function of drinking preferences.

Compound: MT-II
overnight food intake (rats [1]; 0.3 μg ICV, positive control): significantly decreased
cumulative feeding duration, change (rats [1]; ICV, positive control): −71%

total amount of salt intake (sodium appetite) (rats [2]; 3 μg ICV): did not significantly change
total amount of salt intake (sodium appetite) (rats [2]; 10 μg ICV): did not significantly change
saccharin intake relative to total intake (taste aversion) (rats [3]; 3 μg ICV): did not decrease saccharin intake
saccharin intake relative to total intake (taste aversion) (rats [3]; 10 μg ICV): did not decrease saccharin intake
Compound: YKVNEYQGPVAPSGGFFLFRPRN-NH2 [NMU]
cumulative feeding duration, change (rats [1]; 3 μg ICV): −33%
overnight food intake, change expressed as percentage of control group (rats [1]; 3 μg ICV): −38±6%
cumulative feeding duration, change (rats [1]; 10 μg ICV): −39%
overnight food intake, change expressed as percentage of control group (rats [1]; 10 μg ICV): −32±3%

Compound: [Cl-].[Li+] [LiCl]
salt intake (sodium appetite) (rats [2]; 0.15 M, 2 ml/kg i.p.): significantly decreased salt intake
saccharin intake (taste aversion) (rats [3]; 0.15 M, 2 ml/kg i.p., emetic control): decreased saccharin intake
